This is an account of results in ChEMBL document CHEMBL1145005 (J Med Chem, 2003).

The species entered for data set [1] is Rattus norvegicus. The data set can be described thus: Effective dose to inhibit aldose reductase activity by normalizing the elevated nerve fructose levels in sciatic nerve of chronically diabetic rat.
The subject of data set [2] is Rattus norvegicus. The data set can be described thus: Aldose reductase inhibition activity in vivo by normalizing the elevated nerve sorbitol levels in sciatic nerve of acutely diabetic rat at 10 mg/kg. In kind it is functional.
The species entered for data set [3] is Rattus norvegicus. In words: Effective dose to inhibit aldose reductase activity by normalizing the elevated nerve sorbitol levels in sciatic nerve of chronically diabetic rat.
Data set [4] deals with Aldo-keto reductase family 1 member B1 (Homo sapiens, UniProt P15121). The data set can be described thus: Inhibition of human recombinant Aldose reductase […].
The test system of data set [5] is Rattus norvegicus. In words: Aldose reductase inhibition activity in vivo by normalizing the elevated nerve fructose levels in sciatic nerve of acutely diabetic rat at 10 mg/kg. It is filed as functional.
Data set [6] has as its system Rattus norvegicus. The data set can be described thus: Aldose reductase inhibition activity in vivo by normalizing the elevated nerve sorbitol levels in sciatic nerve of acutely diabetic rat at 20 mg/kg. In kind it is functional.
The test system of data set [7] is Rattus norvegicus. In words: Aldose reductase inhibition activity in vivo by normalizing the elevated nerve fructose levels in sciatic nerve of acutely diabetic rat at 20 mg/kg. In kind it is functional.
A short description of data set [8]: Log D value at pH 7.4. It is filed as physicochemical. The conditions noted are these: buffer.
Data set [9] is described as follows: Maximum concentration of drug in plasma was determined at 2 mg/kg orally. In kind it is ADME, organism-based. Also noted: dose 2 mg/kg, route oral. The settings on record: in vivo, po.
Data set [10] has as its system Rattus norvegicus. The data set can be described thus: Effective dose to inhibit aldose reductase activity by normalizing the elevated lens sorbitol levels in sciatic nerve of chronically diabetic rat orally. The conditions noted are these: po. In kind it is functional.
Data set [11] is described as follows: Oral bioavailability in rat. It is filed as ADME, organism-based. The conditions noted are these: in vivo, read-out: Bioavailability_oral.
The test system of data set [12] is Rattus norvegicus. In words: Effective dose to inhibit aldose reductase activity by normalizing the elevated lens fructose levels in sciatic nerve of chronically diabetic rat orally. The conditions noted are these: po. In kind it is functional.
The nature of data set [13]: Log P / Log D value was determined. In kind it is physicochemical. The conditions noted are these: octanol/water.
The nature of data set [14]: Plasma t1/2 of compound was determined in diabetic rat. It is filed as ADME, organism-based.
The nature of data set [15]: Partition coefficient (logP). In kind it is physicochemical. The settings on record: octanol/water.
A short description of data set [16]: pKa value of compound was determined. In kind it is physicochemical.
In data set [17] the test system is Rattus norvegicus. In words: Aldose reductase inhibition activity in vivo by normalizing the elevated lens sorbitol levels in sciatic nerve of acutely diabetic rat at 20 mg/kg. The conditions noted are these: read-out: Inhibition.
Data set [18] deals with Rattus norvegicus. The data set can be described thus: Aldose reductase inhibition activity in vivo by normalizing the elevated nerve sorbitol levels in sciatic nerve of acutely diabetic rat at 300 mg/kg. It is filed as functional.
In data set [19] the test system is Rattus norvegicus. The data set can be described thus: Aldose reductase inhibition activity in vivo by normalizing the elevated nerve fructose levels in sciatic nerve of acutely diabetic rat at 300 mg/kg. It is filed as functional.
Data set [20] in a line: Dissociation constant was determined. In kind it is physicochemical.

For `O=c1ccc(S(=O)(=O)c2ccc(Cl)cc2Cl)n[nH]1`, the ED90 in data set [1] turned out to be 20 mg/kg; in [3] it was 5 mg/kg. In addition, the inhibition in vivo at 10 mg/kg in [2] turned out to be 95%; in data set [5] it was 73%. Also, in [4], the IC50 was determined as 190 nM.

With `O=c1ccc(S(=O)(=O)c2cc3ccccc3[nH]2)n[nH]1`, the concentration for half-maximal inhibition (IC50) in data set [4] was 5000 nM.

In the case of `O=S(=O)(c1ccc(O)nn1)c1ccccc1-c1ccccc1`, the 50% inhibitory concentration (IC50) in [4] worked out at 2200 nM.

Take `O=c1ccc(S(=O)(=O)c2cc3ccccc3s2)n[nH]1`: the 50% inhibitory concentration (IC50) in data set [4] is 150 nM.

`O=c1ccc(S(=O)(=O)c2ccc(F)cc2Cl)n[nH]1`: the inhibition in vivo at 10 mg/kg came to 91% in data set [2] and 46% in data set [5]. The IC50 in data set [4] turned out to be 280 nM.

As to `O=c1ccc(S(=O)(=O)c2ccccc2Cl)n[nH]1`, the inhibition in vivo at 20 mg/kg in [6] is 96%; in data set [7] it was 68%. The IC50 in data set [4] came to 170 nM.

On to `O=c1ccc(S(=O)(=O)c2cc3ccccc3o2)n[nH]1`, for which, in data set [4], the concentration for half-maximal inhibition (IC50) was 150 nM.

Turning to `COc1ccc(S(=O)(=O)c2ccc(=O)[nH]n2)cc1`, the 50% inhibitory concentration (IC50) in data set [4] amounted to 2000 nM.

In [8], `Cc1c(S(=O)(=O)c2ccc(=O)[nH]n2)oc2ccc(Cl)cc12` registered a pH-dependent lipophilicity (logD) of 2.46. This molecule yielded a maximum concentration (Cmax) in [9] of 9000 ng/mL. The figures for the ED90 in data set [10] and in data set [12] were 0.8 mg/kg and 3 mg/kg, respectively. The bioavailability in data set [11] was determined as 98%. The “Log P/Log D” value in data set [13] came out at 0.81. In data set [4], the half-inhibitory concentration (IC50) stood at 0.84 nM. This molecule had a half-life in [14] of 26 h. In [15], the logP was 3.05.

The molecule `O=C(O)Cc1nn(Cc2nc3cc(C(F)(F)F)ccc3s2)c(=O)c2ccccc12` [ZOPOLRESTAT] came in with a pKa in data set [16] of 3. The results for the ED90 in data set [1] and in [3] were 40 mg/kg and 10 mg/kg, respectively. In addition, the inhibition in vivo at 20 mg/kg in data set [17] came out at 41%.

As to `O=S(=O)(c1ccccc1)c1ccc(O)nn1`, the figures for the inhibition in vivo at 300 mg/kg in data set [18] and in data set [19] were 95% and 89%, respectively. Further, in data set [16], the pKa is 7.1. Besides, the concentration for half-maximal inhibition (IC50) in data set [4] is 600 nM.

With `O=C1NC(=O)[C@@]2(CCOc3ccc(F)cc32)N1` [SORBINIL], in data set [20], the pKa was more than 8.

On to `Cc1ccc(S(=O)(=O)c2ccc(O)nn2)cc1`, for which the IC50 in data set [4] turned out to be 1900 nM.

For the molecule `O=S(=O)(c1ccc(O)nn1)c1nc2ccccc2s1`, the half-inhibitory concentration (IC50) in data set [4] was found to be 450 nM.

Consider `O=c1ccc(S(=O)(=O)c2ccc(Br)cc2F)n[nH]1`, for which, in data set [4], the IC50 was determined as 140 nM.

On to `O=c1ccc(S(=O)(=O)c2ccccc2Br)n[nH]1`, for which the IC50 in data set [4] worked out at 210 nM.
